Source: patent publication US20250179066A1, “ZWITTERIONIC ANTIBACTERIAL COMPOUNDS” (Hoffmann-La Roche Inc., priority 2022, published 2025)
Structures can show the parent of a compound that is named as a salt.

System: Acinetobacter baumannii ATCC17961
Assay: Antimicrobial susceptibility testing: 90% growth inhibitory concentration (IC90) determination
Type: cell-based
Details: Acinetobacter baumannii, ATCC17961, 16 h, 90% growth inhibitory concentration against Acinetobacter baumannii ATCC17961, Iso-Sensitest broth, OD 600 nm over 16 h; read-out: ATCC 17961 IC90
Description: The in vitro antimicrobial activity of the compounds was determined according to the following procedure: The assay used a 10-points Iso-Sensitest broth medium to measure quantitatively the in vitro activity of the compounds against Acinetobacter baumannii ATCC17961. Stock compounds in DMSO were serially twofold diluted (e.g. range from 10 to 0.0195 μM final concentration) in 384 wells microtiter plates and inoculated with 49 μL the bacterial suspension in Iso-Sensitest medium to have a final cell concentration of ˜5×10^(5) CFU/mL in a final volume/well of 50 μL/well. Microtiter plates were incubated at 35±2° C. Bacterial cell growth was determined with the measurement of optical density at λ=600 nm each min over a time course of 16 h. Growth inhibition was calculated during the logarithmic growth of the bacterial cells with determination of the concentration inhibiting 50% (IC50) and 90% (IC90) of the growth. Table 1 provides the 90% growth inhibitory concentrations (IC90) in micromoles per liter of the compounds of present invention obtained against the strain Acinetobacter baumannii ATCC17961.

IC90	SMILES
1410 nM	Cn1c(-c2cn(-c3ccc(N)cn3)nc2C(F)(F)F)cnc1C(=O)Nc1ccc(C(=O)N2CCC(C(=O)N3CC[N+](CC(=O)O)(CC4CNC4)CC3)CC2)c(Cl)c1 [Example 87, 2-[4-[1-[4-[[5-[1-(5-amino-2-pyridyl)-3-(trifluoromethyl)pyrazol-4-yl]-1-methyl-imidazole-2-carbonyl]amino]-2-chloro-benzoyl]piperidine-4-carbonyl]-1-(azetidin-3-ylmethyl)piperazin-1-ium-1-yl]acetic acid. 1:1 2,2,2-trifluoroacetate]
555 nM	Cn1c(-c2cn(-c3cc4c(ccn4CC(N)=O)cn3)nc2C(F)(F)F)cnc1C(=O)Nc1ccc(C(=O)N2CCN(C(=O)[C@H]3CC[N@+](CC(=O)O)(CC4CNC4)CC3)CC2)c(Cl)c1 [Example 168, cis-2-[4-[4-[4-[[5-[1-[1-(2-amino-2-keto-ethyl)pyrrolo[3,2-c]pyridin-6-yl]-3-(trifluoromethyl)pyrazol-4-yl]-1-methyl-imidazole-2-carbonyl]amino]-2-chloro-benzoyl]piperazine-1-carbonyl]-1-(azetidin-3-ylmethyl)piperidin-1-ium-1-yl]acetic Acid.1:1 2,2,2-trifluoroacetate]
440 nM	Cn1c(-c2cn(-c3ccc(Nc4ccccn4)cn3)nc2C(F)(F)F)cnc1C(=O)Nc1ccc(C(=O)N2CCN(C(=O)C3CC[N+](CC(=O)O)(CC4CNC4)CC3)CC2)c(Cl)c1 (stereo not shown) [Example 41, 2-[1-(azetidin-3-ylmethyl)-4-[4-[2-chloro-4-[[1-methyl-5-[1-[5-(2-pyridylamino)-2-pyridyl]-3-(trifluoromethyl)pyrazol-4-yl]imidazole-2-carbonyl]amino]benzoyl]piperazine-1-carbonyl]piperidin-1-ium-1-yl]acetic acid. 1:1 formate]
525 nM	Cn1c(-c2cn(-c3ccc4[nH]c([C@H](O)CO)cc4n3)nc2C(F)(F)F)cnc1C(=O)Nc1ccc(C(=O)N2CCN(C(=O)[C@H]3CC[N@+](CC(=O)O)(CC4CNC4)CC3)CC2)c(Cl)c1 [Example 105, cis-2-[1-(azetidin-3-ylmethyl)-4-[4-[2-chloro-4-[[5-[1-[2-[(1S)-1,2-dihydroxyethyl]-1H-pyrrolo[3,2-b]pyridin-5-yl]-3-(trifluoromethyl)pyrazol-4-yl]-1-methyl-imidazole-2-carbonyl]amino]benzoyl]piperazine-1-carbonyl]piperidin-1-ium-1-yl]acetic acid;2,2,2-trifluoroacetate]
135 nM	Cn1c(-c2cn(-c3ccc(NCCO)cc3F)nc2C(F)(F)F)cnc1C(=O)Nc1ccc(C(=O)N2CCN(C(=O)[C@H]3CC[N@+](CC(=O)O)(CC4CNC4)CC3)CC2)c(Cl)c1 [Example 178, cis-2-[1-(azetidin-3-ylmethyl)-4-[4-[2-chloro-4-[[5-[1-[2-fluoro-4-(2-hydroxyethylamino)phenyl]-3-(trifluoromethyl)pyrazol-4-yl]-1-methyl-imidazole-2-carbonyl]amino]benzoyl]piperazine-1-carbonyl]piperidin-1-ium-1-yl]acetic acid. 1:1 formate]

Further lines, the compound ahead of its results:

SMILES	IC90
CN(C)C(=O)c1c[nH]c2cc(-n3cc(-c4cnc(C(=O)Nc5ccc(C(=O)N6CCN(C(=O)[C@H]7CC[N@+](CC(=O)O)(CC8CNC8)CC7)CC6)c(Cl)c5)n4C)c(C(F)(F)F)n3)ncc12 [Example 172, cis-2-[1-(azetidin-3-ylmethyl)-4-[4-[2-chloro-4-[[5-[1-[3-(dimethylcarbamoyl)-1H-pyrrolo[3,2-c]pyridin-6-yl]-3-(trifluoromethyl)pyrazol-4-yl]-1-methyl-imidazole-2-carbonyl]amino]benzoyl]piperazine-1-carbonyl]piperidin-1-ium-1-yl]acetic acid. 1:1 2,2,2-trifluoroacetate]	194 nM
C[C@H]1CN(C(=O)C2CC[N+](CC(=O)O)(CC3CNC3)CC2)CCN1C(=O)c1ccc(NC(=O)c2ncc(-c3cn(-c4ccc(N)cn4)nc3C(F)(F)F)n2C)cc1Cl (stereo partly drawn) [Example 79, 2-[4-[(3S)-4-[4-[[5-[1-(5-amino-2-pyridyl)-3-(trifluoromethyl)pyrazol-4-yl]-1-methyl-imidazole-2-carbonyl]amino]-2-chloro-benzoyl]-3-methyl-piperazine-1-carbonyl]-1-(azetidin-3-ylmethyl)piperidin-1-ium-1-yl]acetic acid. 1:1 formate]	1120 nM
Cn1c(-c2cn(-c3cc4[nH]cc(C(=O)N5CCOCC5)c4cn3)nc2C(F)(F)F)cnc1C(=O)Nc1ccc(C(=O)N2CCN(C(=O)[C@H]3CC[N@+](CC(=O)O)(CC4CNC4)CC3)CC2)c(Cl)c1 [Example 177, cis-2-[1-(azetidin-3-ylmethyl)-4-[4-[2-chloro-4-[[1-methyl-5-[1-[3-(morpholine-4-carbonyl)-1H-pyrrolo[3,2-c]pyridin-6-yl]-3-(trifluoromethyl)pyrazol-4-yl]imidazole-2-carbonyl]amino]benzoyl]piperazine-1-carbonyl]piperidin-1-ium-1-yl]acetic acid. 1:1 2,2,2-trifluoroacetate]	201 nM
Cn1c(-c2cn(-c3ccc4[nH]c(CO)cc4n3)nc2C(F)(F)F)cnc1C(=O)Nc1ccc(C(=O)N2CCN(C(=O)C3CC[N+](CCCN)(CC(=O)O)CC3)CC2)c(Cl)c1 (stereo not shown) [Example 145]	205 nM
Cn1c(-c2cn(-c3ccc(N)cn3)nc2C(F)(F)F)cnc1C(=O)Nc1ccc(C(=O)N2CCN(C(=O)[C@@H](N)CCCCNCC(=O)O)CC2)c(Cl)c1 [Example 81, 2-[[(5S)-amino-6-[4-[4-[[5-[1-(5-amino-2-pyridyl)-3-(trifluoromethyl)pyrazol-4-yl]-1-methyl-imidazole-2-carbonyl]amino]-2-chloro-benzoyl]piperazino]-6-keto-hexyl]amino]acetic acid. 1:1 2,2,2-trifluoroacetic acid]	1210 nM
CC[C@@H]1CN(C(=O)C2CC[N+](CC(=O)O)(CC3CNC3)CC2)CCN1C(=O)c1ccc(NC(=O)c2ncc(-c3cn(-c4ccc(N)cn4)nc3C(F)(F)F)n2C)cc1Cl (stereo partly drawn) [Example 78, 2-[4-[(3R)-4-[4-[[5-[1-(5-amino-2-pyridyl)-3-(trifluoromethyl)pyrazol-4-yl]-1-methyl-imidazole-2-carbonyl]amino]-2-chloro-benzoyl]-3-ethyl-piperazine-1-carbonyl]-1-(azetidin-3-ylmethyl)piperidin-1-ium-1-yl]acetic acid. 1:1 formate]	1110 nM
Cn1c(-c2cn(-c3ccc4c(cc(C(=O)N5CCOCC5)n4C)n3)nc2C(F)(F)F)cnc1C(=O)Nc1ccc(C(=O)N2CCN(C(=O)[C@H]3CC[N@@+](CCCN)(CC(=O)O)CC3)CC2)c(Cl)c1 [Example 103, cis-2-[1-(3-aminopropyl)-4-[4-[2-chloro-4-[[1-methyl-5-[1-[1-methyl-2-(morpholine-4-carbonyl)pyrrolo[3,2-b]pyridin-5-yl]-3-(trifluoromethyl)pyrazol-4-yl]imidazole-2-carbonyl]amino]benzoyl]piperazine-1-carbonyl]piperidin-1-ium-1-yl]acetic acid;formate]	604 nM
Cn1c(-c2cn(-c3ccc(N)cn3)nc2C(F)(F)F)cnc1C(=O)Nc1ccc(C(=O)N2CCN(C(=O)C3CC[N+](CCCN)(CC(=O)O)CC3)CC2)c(Cl)c1 (stereo not shown) [Example 30, 2-[1-(3-aminopropyl)-4-[4-[4-[[5-[1-(5-amino-2-pyridyl)-3-(trifluoromethyl)pyrazol-4-yl]-1-methyl-imidazole-2-carbonyl]amino]-2-chloro-benzoyl]piperazine-1-carbonyl]piperidin-1-ium-1-yl]acetic acid. 1:1 2,2,2-trifluoroacetate]	370 nM
